Here are results for six compounds from US20230303570A1, “KINASE INHIBITORS AND USES THEREOF” (ABM Therapeutics Corporation, priority 2020, published 2023).

The target in one data set is HPK1 (MAP4K1) (Homo sapiens, UniProt Q92918). Nature of the data set: HPK1 (MAP4K1) kinase Lantha screen assay. Format: biochemical. In a few lines: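 Recombinant MAP4K1 preincubated 10 min with compound (6-point dilution, duplicates) in 50 mM HEPES pH 7.5, 10 mM MgCl2, then reacted with Fluorescein-PKC substrate and ATP for 90 min at room temperature. Antibody detection solution stopped reaction; after 60 min, TR-FRET read at ex 340 nm, em 520/495 nm.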

Data set [1] is described as follows: Mouse pharmacokinetics study (intravenous and oral). Format: in vivo. The conditions noted are these: CD-1 mice; for F / AUC / Cmax / Tmax: PO 25 mg/kg; for Vd / half-life / clearance / AUC / Cmax / Tmax: mouse, plasma; for Vd / half-life / clearance: IV 5 mg/kg; for clearance: read-out: Clp. From the text: The test articles were formulated in […] Hydroxypropyl-beta-cyclodextrin, either as a clear solution or fine suspension.

Sequence of HPK1 (MAP4K1) (Q92918 whole entry, species assumed): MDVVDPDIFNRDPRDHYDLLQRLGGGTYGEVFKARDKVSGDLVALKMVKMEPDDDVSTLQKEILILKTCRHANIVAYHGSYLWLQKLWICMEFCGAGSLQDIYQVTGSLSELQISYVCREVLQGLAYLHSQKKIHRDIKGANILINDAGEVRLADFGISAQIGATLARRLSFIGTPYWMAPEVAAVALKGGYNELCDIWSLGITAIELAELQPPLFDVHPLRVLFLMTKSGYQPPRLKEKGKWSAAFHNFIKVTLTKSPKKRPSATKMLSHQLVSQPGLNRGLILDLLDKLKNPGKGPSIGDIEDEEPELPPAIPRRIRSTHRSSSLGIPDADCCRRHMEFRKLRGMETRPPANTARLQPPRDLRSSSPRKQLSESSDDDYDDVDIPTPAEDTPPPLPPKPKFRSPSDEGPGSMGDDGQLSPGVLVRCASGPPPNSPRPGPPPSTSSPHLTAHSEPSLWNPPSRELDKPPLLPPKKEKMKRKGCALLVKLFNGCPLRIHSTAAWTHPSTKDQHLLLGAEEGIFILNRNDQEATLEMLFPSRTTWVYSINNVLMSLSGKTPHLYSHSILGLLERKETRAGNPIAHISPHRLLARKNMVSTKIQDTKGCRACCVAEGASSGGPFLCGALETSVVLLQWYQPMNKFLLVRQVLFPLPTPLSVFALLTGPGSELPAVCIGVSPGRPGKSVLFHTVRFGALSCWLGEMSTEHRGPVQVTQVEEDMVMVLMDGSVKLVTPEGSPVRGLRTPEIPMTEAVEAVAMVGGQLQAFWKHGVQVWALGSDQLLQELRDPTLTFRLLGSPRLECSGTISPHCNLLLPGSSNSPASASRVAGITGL

On to `CNc1ncc2c(n1)N1CCN=C1C(c1cc(NC(=O)c3cc(C(C)(C)C#N)ccn3)ccc1C)=C2` [Compound 163, 4-(2-cyanopropan-2-yl)-N-(4-methyl-3-(2-(methylamino)-8,9-dihydroimidazo[1′,2′:1,6]pyrido[2,3-d]pyrimidin-6-yl)phenyl)picolinamide], for which the IC50 at HPK1 (MAP4K1) was below 100 nM. In data set [1], the F worked out at 74.6 ± 54%, the Vd was 6.61 ± 1.04 L/kg, the half-life was 1.57 ± 0.2 h and the clearance came out at 48.8 ± 5.8 mL/min/kg. In data set [1], the AUC was 6320 ± 4580 ng·h/mL, the Cmax amounted to 1100 ± 497 ng/mL and the Tmax was determined as 1.33 ± 0.58 h.
`Cc1cc(F)c(NC(=O)c2cc(C(C)(C)C#N)ccn2)cc1C1=Cc2cnc(NC3COC3)nc2N2CCN=C12` [Compound 181, 4-(2-cyanopropan-2-yl)-N-(2-fluoro-4-methyl-5-(2-(oxetan-3-ylamino)-8,9-dihydroimidazo[1′,2′:1,6]pyrido[2,3-d]pyrimidin-6-yl)phenyl)picolinamide]: the IC50 against HPK1 (MAP4K1) is below 100 nM. Also, in data set [1], the F turned out to be 58.1 ± 6.1%, the Vd was found to be 4.78 ± 1.21 L/kg, the half-life is 2.01 ± 0.82 h and the clearance is 28.5 ± 3.8 mL/min/kg. In data set [1], the AUC turned out to be 8610 ± 903 ng·h/mL, the highest level (Cmax) was 1760 ± 380 ng/mL and the Tmax was 2 h.
For the compound `Cc1ncc(Nc2ncc3c(n2)N2CCN=C2C(c2cc(NC(=O)c4cc(C(F)(F)F)ccn4)ccc2C)=C3)s1` [Compound 231, N-(4-methyl-3-(2-((2-methylthiazol-5-yl)amino)-8,9-dihydroimidazo[1′,2′:1,6]pyrido[2,3-d]pyrimidin-6-yl)phenyl)-4-(trifluoromethyl)picolinamide], the IC50 on HPK1 (MAP4K1) is below 100 nM. In data set [1], the AUC worked out at 16200 ± 2100 ng·h/mL, the Cmax was determined as 1190 ± 302 ng/mL and the time to peak (Tmax) worked out at 1.67 ± 0.58 h.
For `Cc1csc(Nc2ncc3c(n2)N2CCN=C2C(c2cc(NC(=O)c4cc(C(F)(F)F)ccn4)ccc2C)=C3)n1` [Compound 233, N-(4-methyl-3-(2-((4-methylthiazol-2-yl)amino)-8,9-dihydroimidazo[1′,2′:1,6]pyrido[2,3-d]pyrimidin-6-yl)phenyl)-4-(trifluoromethyl)picolinamide], the IC50 at HPK1 (MAP4K1) was below 100 nM. In data set [1], the AUC turned out to be 12000 ± 2750 ng·h/mL, the concentration peaked (Cmax) at 893 ± 258 ng/mL and the Tmax turned out to be 6.67 ± 2.31 h.
Regarding `Cc1ccc(NC(=O)c2cc(C(F)(F)F)ccn2)cc1C1=Cc2cnc(Nc3ccn(C)n3)nc2N2CCN=C12` [Compound 234, N-(4-methyl-3-(2-((1-methyl-1H-pyrazol-3-yl)amino)-8,9-dihydroimidazo[1′,2′:1,6]pyrido[2,3-d]pyrimidin-6-yl)phenyl)-4-(trifluoromethyl)picolinamide], the IC50 on HPK1 (MAP4K1) is below 100 nM. In data set [1], the AUC came to 20500 ± 2190 ng·h/mL, the highest level (Cmax) was 1630 ± 151 ng/mL and the Tmax is 2 h.
As to `Cc1ccc(NC(=O)c2cc(C(F)(F)F)ccn2)cc1C1=Cc2cnc(Nc3cncs3)nc2N2CCN=C12` [Compound 256, N-(4-methyl-3-(2-(thiazol-5-ylamino)-8,9-dihydroimidazo[1′,2′:1,6]pyrido[2,3-d]pyrimidin-6-yl)phenyl)-4-(trifluoromethyl)picolinamide], in data set [1], the AUC is 11700 ± 1430 ng·h/mL, the Cmax came out at 1180 ± 193 ng/mL and the Tmax came out at 1.33 ± 0.58 h.
